Target: T1, PA3944 (Pseudomonas aeruginosa, UniProt Q9HX72)
T1 construct: heterologous expression; N-terminal polyhistidine tag kept for kinetics, removed for crystallization; monomer in solution
Test: X-ray crystal structure ([…] Å)
Format: binding
Conditions: co-crystallized with 5 mM AcCoA, donor site

T1 sequence (Q9HX72 whole entry): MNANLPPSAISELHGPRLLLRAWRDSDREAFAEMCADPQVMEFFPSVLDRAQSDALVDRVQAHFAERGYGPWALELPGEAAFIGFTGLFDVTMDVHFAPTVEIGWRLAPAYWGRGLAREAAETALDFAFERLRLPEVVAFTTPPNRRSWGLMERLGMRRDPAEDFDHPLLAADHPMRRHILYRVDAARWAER

SMILES	X-ray crystal structure (1.80 Å) (AcCoA modeled in chain B)	X-ray crystal structure (1.80 Å) (CoA modeled in chain A)
CC(=O)SCCNC(=O)CCNC(=O)[C@H](O)C(C)(C)COP(=O)(O)OP(=O)(O)OC[C@H]1O[C@@H](n2cnc3c(N)ncnc32)[C@H](O)[C@@H]1OP(=O)(O)O [AcCoA]	we modeled CoA in chain A and AcCoA in chain B	–
CC(C)(COP(=O)(O)OP(=O)(O)OC[C@H]1O[C@@H](n2cnc3c(N)ncnc32)[C@H](O)[C@@H]1OP(=O)(O)O)[C@@H](O)C(=O)NCCC(=O)NCCS [CoA]	–	we modeled CoA in chain A and AcCoA in chain B

— PMC8072286, “Gcn5-Related N-Acetyltransferases (GNATs) With a Catalytic Serine Residue Can Play Ping-Pong Too” (Frontiers in Molecular Biosciences, 2021)
